Assay results from US12285528B2, “Injectable formulations of anesthetics for any pathological pain” (New Jersey Institute of Technology, priority 2018, dated 2025).

Key:
Type in all cases: in vivo, rat
[1] = tested on: incision-induced thermal pain hypersensitivity; assay: Incisional pain model, heat allodynia (paw withdrawal latency) after peri-sciatic nerve injection; settings: 0.25%, P<0.05
Protocol: (§1) Male and female Sprague-Dawley rats weighing 200-250 g were obtained from Charles River Laboratories (Wilmington, MA). All rats were housed in an animal facility that was kept in a standard 12-h light/dark cycle, with standard laboratory water and food pellets available ad libitum. Animal experiments were conducted with the approval of the Animal Care and Use Committee at Rutgers-New Jersey Medical School and were consistent with the ethical guidelines of the US National Institutes of Health and the International Association for the Study of Pain. All efforts were made to minimize animal suffering and to reduce the number of animals used. To minimize intra- and inter-individual variability of behavioral outcome measures, animals were trained for 1-2 days before behavioral testing was performed. The experimenters were blinded to treatment condition during behavioral testing.
(§2) The incisional surgery was carried out with minor modification as described in T. J. Brennan, et al., Characterization of a rat model of incisional pain, Pain, 64 (1996) 493-501. Rats were anesthetized with 2% isoflurane delivered via a nose cone. The plantar aspect of the left hindpaw was prepared in a sterile manner with a 10% povidone-iodine solution. A 1-cm longitudinal incision was made with a number 11 blade, through skin and fascia of the plantar aspect of the foot, starting 0.5 cm from the proximal edge of the heel and extending toward the toes. The plantaris muscle was elevated and incised longitudinally. After hemostasis with gentle pressure, the skin was sutured with 5-0 nylon thread. The wound site was covered with a mixture of polymixin B, neomycin, and bacitracin ointment. After surgery, the animals were allowed to recover in their cages.
(§3) The rats received sciatic nerve block under inhalation anesthesia with isoflurane. Nerve block injections were performed with a 20-gauge needle under isoflurane-oxygen anesthesia as described in J. G. Thalhammer, et al., Neurologic evaluation of the rat during sciatic nerve block with lidocaine, Anesthesiology, 82 (1995) 1013-1025. […]

locomotor function = assay: Locomotor function test (placing, grasping, righting reflexes); settings: 0.25%
Protocol: The rats were divided into different groups according to the different pain model performed (incisional pain model or SNI model), and were injected with 0.2 mL of a sustained-release ropivacaine hydrochloride PBS solution (SRR or alternatively, PLGA-ROPI) containing 0.25%, 0.125%, and 0.06% of PLGA-ROPI or PLGA-RVC·HCl, a PBS solution containing 0.25% free ropivacaine (FR or alternatively, Free-ROPI), and 2 control solutions of a neat PBS, and a neat PLGA, respectively. The % used here refers to the weight (gram %) of PLGA-ROPI or PLGA-RVC·HCl by the volume (mL) of the solution. For example, 0.25% refers to 0.25 g/100 mL. The animals were divided into 10 groups: incision+0.25% SRR, incision+0.125% SRR, incision+0.06% SRR, incision+0.25% FR, incision+PLGA, incision+PBS. SNI+0.25% SRR, SNI+0.125% SRR, SNI+0.06% SRR, SNI+PBS. Each group contained 8 rats. […] For the SNI model, mechanical and cold allodynia with 1 h intervals were used to examine rats 1 d before surgery and 7 d post-surgery, post peri-sciatic nerve injection on 7 d post-surgery, and the behavior test was resumed on d8, d10, d12, d14, d16, d19, and d22. Tests of locomotor function, including placing, grasping and righting reflexes, were performed before and after incision surgery according to the previously described protocol in Y. X. Tao, et al., Impaired neuropathic pain and preserved acute pain in rats overexpressing voltage-gated potassium channel subunit Kv1.2 in primary afferent neurons, Molecular Pain, 10 (2014) 8. (1) Placing reflex: The rat was held with hind limbs slightly lower than the forelimbs and the dorsal surfaces of the hind paws were brought into contact with the edge of a table. Whether the hind paws were placed on the table surface reflexively was recorded; (2) Grasping reflex: The rat was placed on a wire grid and whether the hind paws grasped the wire on contact was recorded; (3) Righting reflex: The rat's back was placed on a flat surface and whether it immediately assumed the normal upright position was recorded. […] In addition, the animal's general behaviors, including spontaneous activity (e.g. walking and running), were observed.

[2] = tested on: myelin basic protein (MBP) of sciatic nerve; assay: Immunohistochemistry, MBP expression pattern of sciatic nerve; settings: 0.25%, 11 days post injection
Protocol: Immunohistochemistry analysis were performed as described previously in Y. X. Tao, et al., Nerve injury-induced epigenetic silencing of opioid receptors controlled by DNMT3a in primary afferent neurons, Pain, 158 (2017) 1153-1165. The rats were anesthetized with isoflurane and perfused with 300 mL of 4% paraformaldehyde in 0.1 M phosphate-buffered saline (PBS) (pH 7.4). After perfusion, sciatic nerves were dissected, postfixed at 4° C. for 4 hours and cryoprotected in 30% sucrose overnight. The transverse and longitudinal sections were cut on a cryostat at a thickness of 20 μm. The sections were blocked for 1 hour at 25° C. in 0.01M PBS containing 5% goat serum and 0.3% Triton X-100. Sections were incubated overnight at 4° C. with mouse anti-myelin basic protein (MBP) (1:500; Biolegend, San Diego, CA). The sections were then incubated with a mixture of goat anti-mouse antibody conjugated to Cy2 (1:500; Jackson ImmunoResearch, West Grove, PA) for 2 hours at room temperature. Immunofluorescence-labeled images were generated using a Leica DMI4000 fluorescence microscope with a DFC365FX camera (Leica, Germany).
To examine whether injection of SRR injured the nerve fiber, we investigated the MBP expression pattern of sciatic nerve on 11 days post injection of PBS, PLGA, 0.25% FR, and 0.25% SRR (n=3 for each group).

[3] = tested on: postsurgical pain (hindpaw plantar incision); assay: Incisional pain model, overall analgesic effect (mechanical and heat) after peri-sciatic nerve injection; settings: 0.25%, 0.2 mL peri-sciatic
Protocol: as §1
The incisional surgery was carried out with minor modification as described in T. J. Brennan, et al., Characterization of a rat model of incisional pain, Pain, 64 (1996) 493-501. Rats were anesthetized with 2% isoflurane delivered via a nose cone. The plantar aspect of the left hindpaw was prepared in a sterile manner with a 10% povidone-iodine solution. […]

[4] = tested on: sciatic nerve and surrounding tissues; assay: Histology (H&E) of sciatic nerve and surrounding tissues; settings: 0.25%, 11 days after injection
Text: The rats were anesthetized with isoflurane and sciatic nerves were harvested and fixed in 4% paraformaldehyde. Following tissue fixation and dehydration, sciatic nerves were embedded in Optimal cutting temperature compound (OCT compound) and 20-μm thin slices were cut on a cryostat, then stained using hematoxylin and eosin stain technique. Nerve structures were observed using a Nikon microscope (Nikon Eclipse 80i, Japan). Rats injected with PBS, PLGA, 0.25% FR (i.e., 0.25% Free ROPI), and 0.25% SRR (i.e., 0.25% PLGA-ROPI) were euthanized 11 days after injection (n=3 for each group), and the sciatic nerve and surrounding tissues were harvested, sectioned for histology, and stained with hematoxylin-eosin (H&E). SRR were not observed on gross dissection.

[5] = tested on: sciatic nerve myelin sheath; assay: Transmission electron microscopy, ultrastructure of sciatic nerve; settings: 0.25%; day 11 after injection; ipsilateral sciatic nerve; no significant difference among groups
Protocol: The rats were anesthetized with isoflurane and perfused with 300 mL of 2.5% gluteraldehyde in 0.1M sodium cacodylate buffer (pH 7.4). After perfusion, sciatic nerves were dissected, postfixed at 4° C. for 3 hours. After dehydrated by gradient ethanol elution, samples were cleared by propylene, then infiltrated with resin and embed in moulds. Transmission electronic microscopy images were acquired by a Hitachi H-7500 transmission electron microscope (Hitachi, Ltd. Japan). To observe the ultrastructure of sciatic nerve after injection, we harvested ipsilateral sciatic nerves on day 11 after injection of PBS. PLGA, 0.25% FR, and 0.25% SRR (n=3 for each group), then processed the tissue to be examined under TEM. […] Specific features of the degeneration of myelin sheath including thinner lamellae, loose lamellae, split myelin lamellae with discontinuities, or vacuole-like inclusions in the cytoplasm of Schwann cells were not observed in any of the nerve tissue.

[6] = tested on: incision-induced mechanical pain hypersensitivity; assay: Incisional pain model, mechanical allodynia (paw withdrawal threshold, von Frey) after peri-sciatic nerve injection; settings: 0.25%, 0.2 mL peri-sciatic, P<0.05
Protocol: as §1, §2, §3

[7] = 2 h, normal reflexes in five trials

CCCN1CCCC[C@H]1C(=O)Nc1c(C)cccc1C [FR, ropivacaine] was tested. Which “increase of paw withdrawal latency to heat stimulation vs incision+PBS” value (“increase of paw withdrawal latency” below) ([1]; 0.2 mL peri-sciatic, 2 h after surgery) did it give?
Its value is 29%.

What about the “increase of paw withdrawal latency” value ([1]; 4 h after surgery) of the same compound?
The value was 33%.

What about the “increase of paw withdrawal latency” value ([1]; 12 h after surgery) of the same compound?
Its value is 18%.

And the Grasping reflex score (locomotor function; [7])?
Its Grasping reflex score is 4.38(0.63).

What about the Placing reflex score (locomotor function; [7]) of the same compound?
The Placing reflex score was 5(0).

And the Righting reflex score (locomotor function; [7])?
The Righting reflex score was 5(0).

What about the Grasping reflex score (locomotor function; 12 h) of the same compound?
Its Grasping reflex score is 5(0).

What about the Placing reflex score (locomotor function; 12 h) of the same compound?
Its Placing reflex score is 5(0).

What about the Righting reflex score (locomotor function; 12 h) of the same compound?
Its Righting reflex score is 5(0).

What about the Grasping reflex score (locomotor function; 1 d) of the same compound?
The Grasping reflex score was 5(0).

What about the Placing reflex score (locomotor function; 1 d) of the same compound?
The Placing reflex score was 5(0).

What about the Righting reflex score (locomotor function; 1 d) of the same compound?
Its Righting reflex score is 5(0).

What about the locomotor function (locomotor function; first 2 h after surgery, statistics showed no significant difference) of the same compound?
The locomotor function was “slightly altered”.

What about the “MBP expression pattern / myelin morphology” value [2] of the same compound?
The value was “no abnormality was observed”.

What about the “period of analgesic effect” value [3] of the same compound?
Its value is at most 24 h post injection.

What about the “inflammation on microscopic examination (H&E)” value [4] of the same compound?
Its value is “no significant inflammation”.

And the “myelin sheath ultrastructure (TEM)” value [5]?
Its value is “intact and tightly laminated without any discontinuities”.

And the “increase of paw withdrawal threshold to mechanical stimulation vs incision+PBS” value (from here on “increase of paw withdrawal threshold”) ([6]; 2 h after surgery)?
Its value is 76%.

What about the “increase of paw withdrawal threshold” value ([6]; 4 h after surgery) of the same compound?
Its value is 59%.

And the “increase of paw withdrawal threshold” value ([6]; 12 h after surgery)?
Its value is 71%.
